“And” between values parts separate entries of the source, which are not always exact repeats. Equal values may be shown once. Read-outs that look alike come from different tables or passages of the source.
Experiments:
GHS-R1a [1] = molecular target: T1, GHS-R1a (Homo sapiens, UniProt Q92847); test: Radioligand binding assay, displacement of [125I-His9]ghrelin(1-28); conditions: for IC50: GHS-R1a transfected HEK293 cells, [125I-His9]ghrelin(1-28) radioligand, determined in applicant's lab; for binding affinity with GHS-R1a, stated in words: radioligand binding assay
T1 construct: expressed in transfected cells; host or cells: HEK293
T1 sequence (Q92847 whole entry): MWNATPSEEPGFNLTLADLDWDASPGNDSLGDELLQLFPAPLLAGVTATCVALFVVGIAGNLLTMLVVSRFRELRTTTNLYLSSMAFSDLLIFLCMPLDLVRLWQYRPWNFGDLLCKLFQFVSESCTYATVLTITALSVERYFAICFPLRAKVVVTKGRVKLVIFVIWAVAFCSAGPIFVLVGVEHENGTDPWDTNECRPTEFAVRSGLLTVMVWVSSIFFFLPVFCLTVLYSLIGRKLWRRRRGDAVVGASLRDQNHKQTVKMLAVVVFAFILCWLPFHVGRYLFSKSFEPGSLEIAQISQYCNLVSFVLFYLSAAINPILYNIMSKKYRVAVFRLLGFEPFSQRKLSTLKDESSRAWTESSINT
Protocol: The affinity for GHS-R1a was determined using a radioligand binding assay. […] The resulting suspension was incubated for 20 min with shaking (550 rpm). […] All binding assays were performed in triplicate.

GHS-R1a [2] = molecular target: T1, GHS-R1a; conditions: cited from earlier work; for Ki: literature value, read-out: Ki values reported in the literature

O=c1c2cc(Oc3ccc(F)cn3)ccc2nc(-c2ccccc2F)n1C[C@H]1CCCNC1 [Compound 9a, (S)-2-(2-fluorophenyl)-6-((5-fluoropyridin-2-yl)oxy)-3-(piperidin-3-ylmethyl)quinazolin-4(3H)-one]
IC50 (GHS-R1a [1]): 935 nM

CC(C)N1CCC[C@H](Cn2c(-c3ccccc3F)nc3ccc(Oc4ccc(F)cn4)cc3c2=O)C1 [Compound 10a, (S)-2-(2-fluorophenyl)-6-((5-fluoropyridin-2-yl)oxy)-3-((1-isopropylpiperidin-3-yl)methyl)quinazolin-4(3H)-one]
IC50 (GHS-R1a [1]): 70.5 nM

Cc1ccccc1-c1nc2ccc(Oc3ccc(F)nc3)cc2c(=O)n1C[C@H]1CCCN(CCF)C1 [Compound 5c, (S)-3-((1-(2-fluoroethyl)piperidin-3-yl)methyl)-6-((6-fluoropyridin-3-yl)oxy)-2-(o-tolyl)quinazolin-4(3H)-one]
IC50 (GHS-R1a [1]): 64.2 nM and 62.4 nM

O=c1c2cc(Oc3ccc(F)cc3)ccc2nc(-c2ccc(OCCO)cc2F)n1C[C@H]1CCCNC1 [Compound 14b, (S)-2-(2-fluoro-4-(2-hydroxyethoxy)phenyl)-6-(4-fluorophenoxy)-3-(piperidin-3-ylmethyl)quinazolin-4(3H)-one]
IC50 (GHS-R1a [1]): 19.8 nM

O=c1c2cc(Oc3ccc4ncsc4c3)ccc2nc(-c2ccccc2F)n1C[C@H]1CCCN(CCF)C1 [Compound 10c, (S)-6-(benzo[d]thiazol-6-yloxy)-3-((1-(2-fluoroethyl)piperidin-3-yl)methyl)-2-(2-fluorophenyl)quinazolin-4(3H)-one]
IC50 (GHS-R1a [1]): 8.1 nM

Cc1ccccc1-c1nc2ccc(C(=O)c3ccc(F)cc3)cc2c(=O)n1C[C@H]1CCCNC1 [Compound 19, (S)-6-(4-fluorobenzoyl)-3-(piperidin-3-ylmethyl)-2-(o-tolyl)quinazolin-4(3H)-one]
IC50 (GHS-R1a [1]): 4 nM

CC(=O)N1CCN(c2ccc(Oc3ccc4nc(-c5ccccc5C)n(C[C@H]5CCCNC5)c(=O)c4c3)cc2)CC1 [Compound 4f, (S)-6-(4-(4-acetylpiperazin-1-yl)phenoxy)-3-(piperidin-3-ylmethyl)-2-(o-tolyl)quinazolin-4(3H)-one]
IC50 (GHS-R1a [1]): 587 nM

O=c1c2cc(Oc3ccc(F)cn3)ccc2nc(-c2ccc(OCCO)cc2F)n1C[C@H]1CCCNC1 [Compound 14a, (S)-2-(2-fluoro-4-(2-hydroxyethoxy)phenyl)-6-((5-fluoropyridin-2-yl)oxy)-3-(piperidin-3-ylmethyl)quinazolin-4(3H)-one]
IC50 (GHS-R1a [1]): 353 nM

Cc1ccccc1-c1nc2ccc(Oc3ccc(F)nc3)cc2c(=O)n1C[C@H]1CCCNC1 [Compound 4c, (S)-6-((6-fluoropyridin-3-yl)oxy)-3-(piperidin-3-ylmethyl)-2-(o-tolyl)quinazolin-4(3H)-one]
IC50 (GHS-R1a [1]): 68.5 nM

Cc1ccccc1-c1nc2ccc(Oc3ccc(Oc4ccc(F)cn4)nc3)cc2c(=O)n1C[C@H]1CCCNC1 [Compound 4d, (S)-6-((6-((5-fluoropyridin-2-yl)oxy)pyridin-3-yl)oxy)-3-(piperidin-3-ylmethyl)-2-(o-tolyl)quinazolin-4(3H)-one]
IC50 (GHS-R1a [1]): 82.9 nM

Cc1ccccc1-c1nc2ccc(Oc3ccc(F)cc3)cc2c(=O)n1C[C@H]1CCCNC1 [Compound 4a, (S)-6-(4-fluorophenoxy)-3-(piperidin-3-ylmethyl)-2-(o-tolyl)quinazolin-4(3H)-one, reference compound]
IC50 (GHS-R1a [1]): 5.6 nM | Ki (GHS-R1a [2]): 0.9 nM

O=c1c2cc(Oc3ccc4ncsc4c3)ccc2nc(-c2ccccc2F)n1C[C@H]1CCCNC1 [Compound 9b, (S)-6-(benzo[d]thiazol-6-yloxy)-2-(2-fluorophenyl)-3-(piperidin-3-ylmethyl)quinazolin-4(3H)-one]
IC50 (GHS-R1a [1]): 16 nM

CC(C)N1CCC[C@H](Cn2c(-c3ccc(OCCO)cc3F)nc3ccc(Oc4ccc(F)cn4)cc3c2=O)C1 [Compound 15a, (S)-2-(2-fluoro-4-(2-hydroxyethoxy)phenyl)-6-((5-fluoropyridin-2-yl)oxy)-3-((1-isopropylpiperidin-3-yl)methyl)quinazolin-4(3H)-one]
IC50 (GHS-R1a [1]): 40.1 nM

CC(C)N1CCC[C@H](Cn2c(-c3ccc(OCCF)cc3F)nc3ccc(Oc4ccc(F)cc4)cc3c2=O)C1 [Compound 17b, (S)-2-(2-fluoro-4-(2-fluoroethoxy)phenyl)-6-(4-fluorophenoxy)-3-((1-isopropylpiperidin-3-yl)methyl)quinazolin-4(3H)-one]
IC50 (GHS-R1a [1]): 0.33 nM | binding affinity with GHS-R1a, stated in words (GHS-R1a [1]): sub-nanomolar binding affinity

Cc1ccccc1-c1nc2ccc(Oc3ccc(Oc4ccc(F)cn4)nc3)cc2c(=O)n1C[C@H]1CCCN(CCO)C1 [Compound 5d, (S)-6-((6-((5-fluoropyridin-2-yl)oxy)pyridin-3-yl)oxy)-3-((1-(2-hydroxyethyl)piperidin-3-yl)methyl)-2-(o-tolyl)quinazolin-4(3H)-one]
IC50 (GHS-R1a [1]): 65.2 nM

Cc1ccccc1-c1nc2ccc(Oc3ccc(F)cn3)cc2c(=O)n1C[C@H]1CCCN(CCF)C1 [Compound 5b, (S)-3-((1-(2-fluoroethyl)piperidin-3-yl)methyl)-6-((5-fluoropyridin-2-yl)oxy)-2-(o-tolyl)quinazolin-4(3H)-one]
IC50 (GHS-R1a [1]): 20.6 nM

Cc1ccccc1-c1nc2ccc(C(=O)c3ccc(F)cc3)cc2c(=O)n1C[C@H]1CCCN(C(C)C)C1 [Compound 20, (S)-6-(4-fluorobenzoyl)-3-((1-isopropylpiperidin-3-yl)methyl)-2-(o-tolyl)quinazolin-4(3H)-one]
IC50 (GHS-R1a [1]): 3.8 nM | binding affinity with GHS-R1a, stated in words (GHS-R1a [1]): equivalent binding affinity to natural ghrelin

CC(C)N1CCC[C@H](Cn2c(-c3ccccc3F)nc3ccc(Oc4ccc5ncsc5c4)cc3c2=O)C1 [Compound 10b, (S)-6-(benzo[d]thiazol-6-yloxy)-2-(2-fluorophenyl)-3-((1-isopropylpiperidin-3-yl)methyl)quinazolin-4(3H)-one]
IC50 (GHS-R1a [1]): 0.02 nM | binding affinity with GHS-R1a, stated in words (GHS-R1a [1]): sub-nanomolar binding affinity

Cc1ccccc1-c1nc2ccc(Oc3ccc4ncsc4c3)cc2c(=O)n1C[C@H]1CCCNC1 [Compound 4e, (S)-6-(benzo[d]thiazol-6-yloxy)-3-(piperidin-3-ylmethyl)-2-(o-tolyl)quinazolin-4(3H)-one]
IC50 (GHS-R1a [1]): 5.3 nM

Cc1ccccc1-c1nc2ccc(Oc3ccc(F)cc3)cc2c(=O)n1C[C@H]1CCCN(CCF)C1 [Compound 5a, (S)-3-((1-(2-fluoroethyl)piperidin-3-yl)methyl)-6-(4-fluorophenoxy)-2-(o-tolyl)quinazolin-4(3H)-one]
IC50 (GHS-R1a [1]): 29.5 nM

Cc1ccccc1-c1nc2ccc(Oc3ccc4ncsc4c3)cc2c(=O)n1C[C@H]1CCCN(CCO)C1 [Compound 5i, (S)-6-(benzo[d]thiazol-6-yloxy)-3-((1-(2-hydroxyethyl)piperidin-3-yl)methyl)-2-(o-tolyl)quinazolin-4(3H)-one]
IC50 (GHS-R1a [1]): 0.4 nM | binding affinity with GHS-R1a, stated in words (GHS-R1a [1]): sub-nanomolar binding affinity

Cc1ccccc1-c1nc2ccc(Oc3ccc4ncsc4c3)cc2c(=O)n1C[C@H]1CCCN(CCF)C1 [Compound 5e, (S)-6-(benzo[d]thiazol-6-yloxy)-3-((1-(2-fluoroethyl)piperidin-3-yl)methyl)-2-(o-tolyl)quinazolin-4(3H)-one]
IC50 (GHS-R1a [1]): 9.3 nM

Cc1ccccc1-c1nc2ccc(Oc3ccc4ncsc4c3)cc2c(=O)n1C[C@H]1CCCN(C(C)C)C1 [Compound 5g, (S)-6-(benzo[d]thiazol-6-yloxy)-3-((1-isopropylpiperidin-3-yl)methyl)-2-(o-tolyl)quinazolin-4(3H)-one]
IC50 (GHS-R1a [1]): 1.8 nM | binding affinity with GHS-R1a, stated in words (GHS-R1a [1]): equivalent binding affinity to natural ghrelin

Cc1ccccc1-c1nc2ccc(Oc3ccc(F)cc3)cc2c(=O)n1C[C@H]1CCCN(C(C)C)C1 [Compound 5f, (S)-6-(4-fluorophenoxy)-3-((1-isopropylpiperidin-3-yl)methyl)-2-(o-tolyl)quinazolin-4(3H)-one, reference compound]
IC50 (GHS-R1a [1]): 3.7 nM | binding affinity with GHS-R1a, stated in words (GHS-R1a [1]): equivalent binding affinity with natural ghrelin | IC50 (GHS-R1a [2]; literature value (Bayer work), read-out: IC50 reported for prior art compound): 0.9 nM | Ki (GHS-R1a [2]): 0.9 nM

CC(C)N1CCC[C@H](Cn2c(-c3ccc(OCCF)cc3F)nc3ccc(Oc4ccc(F)cn4)cc3c2=O)C1 [Compound 17a, (S)-2-(2-fluoro-4-(2-fluoroethoxy)phenyl)-6-((5-fluoropyridin-2-yl)oxy)-3-((1-isopropylpiperidin-3-yl)methyl)quinazolin-4(3H)-one]
IC50 (GHS-R1a [1]): 17.6 nM

Cc1ccccc1-c1nc2ccc(Oc3ccc(F)cn3)cc2c(=O)n1C[C@H]1CCCNC1 [Compound 4b, (S)-6-((5-fluoropyridin-2-yl)oxy)-3-(piperidin-3-ylmethyl)-2-(o-tolyl)quinazolin-4(3H)-one]
IC50 (GHS-R1a [1]): 52 nM

Cc1ccccc1-c1nc2ccc(Oc3ccc(F)cn3)cc2c(=O)n1C[C@H]1CCCN(C(=O)C(C)F)C1 (stereo partly drawn) [Compound 5j, 3-(((3S)-1-(2-fluoropropanoyl)piperidin-3-yl)methyl)-6-((5-fluoropyridin-2-yl)oxy)-2-(o-tolyl)quinazolin-4(3H)-one]
IC50 (GHS-R1a [1]): > 1000 nM

CC(C)N1CCC[C@H](Cn2c(-c3ccc(OCCO)cc3F)nc3ccc(Oc4ccc(F)cc4)cc3c2=O)C1 [Compound 15b, (S)-2-(2-fluoro-4-(2-hydroxyethoxy)phenyl)-6-(4-fluorophenoxy)-3-((1-isopropylpiperidin-3-yl)methyl)quinazolin-4(3H)-one]
IC50 (GHS-R1a [1]): 2.3 nM | binding affinity with GHS-R1a, stated in words (GHS-R1a [1]): equivalent binding affinity to natural ghrelin

— US11186571B2, “Quinazolinone derivatives useful for imaging” (LONDON HEALTH SCIENCES CENTRE RESEARCH INC., priority 2017, dated 2021)
